{
  "source": "paper PMC6271870",
  "about": "“Study on the Synthesis, Biological Activity and Spectroscopy of Naphthalimide-Diamine Conjugates” (Molecules, 2014)",
  "key": {"human leukemia K562": {"system": "human leukemia K562", "test": "MTT assay, K562 cells", "format": "cell-based", "details": "48 h, aminoguanidine present, mean ± SD of three determinations, max 50 µM tested", "procedure": "The cytotoxicities of the novel conjugates were assessed in vitro by the MTT assay in the presence of aminoguanidine (an inhibitor of amine oxidase) against three cell lines, human leukemia K562, cancer of colon HCT116 and human normal hepatocyte QSG-7701 [34]. […] Thus, compound 7f was selected for further investigation. Cell lines, K562, 7721 and HCT116 were obtained from American Type Culture Collection (ATCC, Shanghai, China). Cells were cultured in RPMI1640, supplemented with 10% heat-inactivated fetal calf serum (FCS), antibiotics (penicillin, 100 units/mL; streptomycin sulfate, 100 μg/mL) at 37 °C, in an atmosphere of 95% air and 5% CO2 under humidified conditions. Aminoguanidine (1 mM) was added as an inhibitor of amine oxidase derived from FCS and had no effect on the various parameters of the cell measured in this study. Chemosensitivity was assessed using the 3-(4,5-dimethylthiazol-2-yl)-2,5-diphenyltetrazolium bromide (MTT) assay. […] After incubation for 4 h at 37 °C, the purple formazan crystals (i.e., a reduced form of MTT) generated from viable cells were dissolved by adding 100 μL 10% sodium dodecyl sulphate (SDS) in each well. The absorbance of each well was then read at 570 nm."}, "cancer of colon HCT116": {"system": "cancer of colon HCT116", "test": "MTT assay, HCT116 cells", "format": "cell-based", "details": "Homo sapiens, HCT-116, aminoguanidine present, mean ± SD of three determinations, max 50 µM tested", "procedure": "(§1) The cytotoxicities of the novel conjugates were assessed in vitro by the MTT assay in the presence of aminoguanidine (an inhibitor of amine oxidase) against three cell lines, human leukemia K562, cancer of colon HCT116 and human normal hepatocyte QSG-7701 [34]. […] Thus, compound 7f was selected for further investigation. Cell lines, K562, 7721 and HCT116 were obtained from American Type Culture Collection (ATCC, Shanghai, China). Cells were cultured in RPMI1640, supplemented with 10% heat-inactivated fetal calf serum (FCS), antibiotics (penicillin, 100 units/mL; streptomycin sulfate, 100 μg/mL) at 37 °C, in an atmosphere of 95% air and 5% CO2 under humidified conditions. Aminoguanidine (1 mM) was added as an inhibitor of amine oxidase derived from FCS and had no effect on the various parameters of the cell measured in this study. In addition, exponentially growing HCT116 or 7721 cells were seeded into 96-well plates at 5000 cells/well and allowed to attach overnight, and then 100 μL of MTT (1 mg/mL) was added. After incubation for 4 h at 37 °C, the MTT solution was removed and the remaining formazan crystals were dissolved with 150 μL DMSO in each well. The absorbance of each well was then read at 570 nm."}, "[1]": {"system": "human normal hepatocyte QSG-7701", "test": "MTT assay, QSG-7701 cells", "format": "cell-based", "details": "QSG7701, aminoguanidine present, mean ± SD of three determinations, max 50 µM tested", "procedure": "as §1"}, "HepG2 cells": {"system": "HepG2 cells", "test": "Apoptosis by Hoechst 33342 staining, laser scanning confocal microscope", "format": "cell-based", "details": "HepG2, 20 μM, 48 h, 200 cells counted; control less than five percent", "text": "Apoptosis, or namely programmed cell death, can be triggered by several stimuli. Both naphthalimides and polyamine derivatives could trigger cell apoptosis. In order to determine whether the antitumor-proliferative effect of compound 7f was associated with cell apoptosis, the HepG2 cell apoptosis was detected by the staining of DNA with Hoechst 33342, and the apoptotic cells were counted by selecting 200 cells randomly (Figure 4). The apoptotic bodies were observed clearly in 7f-treated groups by laser scanning confocal microscope. 7f could trigger apoptosis in a dose-dependent manner with the 47.0% apoptotic ratio of 7f at 20 μM compared with the less than five percent in the control group. Exponentially growing HepG2 cells were seeded in 96 well plates (6 × 10^4 cells/well) and treated with indicated concentrations of 7f. After incubated for 48 h, cells were washed three times with PBS, and finally stained with 10 μM Hoechst 33342 in the dark at 37 °C for 20 min. They were detected by laser scanning confocal microscope and the apoptotic cells were count by selecting 200 cells randomly."}, "herring sperm DNA": {"system": "herring sperm DNA", "test": "Iodide (KI) fluorescence quenching in absence and presence of DNA", "format": "binding", "details": "KI quencher", "text": "A highly negatively charged quencher is expected to be repelled by the negatively charged phosphate backbone of DNA, therefore an intercalative bound drug molecules should be protected from being quenched by anionic quencher, but the free aqueous complexes or groove binding drugs should be quenched readily by anionic quenchers. At the same time, whether the quencher accesses to fluorophore also plays a role in free and bound one.\nNegatively charged I^− was selected for this purpose. The quenching constants (Ksv) were obtained from the Stern–Volmer equation. […]\nSolution of compound 7f (0.5 mL, 2.00 × 10^−4 mol/L and herring sperm DNA 0.5 mL ([…]) in Tris-HCl (pH = 7.4) were mixed with 0.0, 0.10, 0.20, 0.30, 0.60, 0.90 1.20, 1.50, 1.80, 2.10, 2.40, 2.70 and 3.00 of KI (2.0 × 10^−2 mol∙L^−1) respectively. Meanwhile, 0.5 mL solution of compound 7f (2.00 × 10^−4 mol/L was only mixed with 0.0, 0.10, 0.20, 0.30, 0.60, 0.90 1.20, 1.50, 1.80, 2.10, 2.40, 2.70 and 3.00 mL of KI (2.0 × 10^−2 mol∙L^−1) respectively. The mixture was diluted to 5 mL with Tris-HCl (pH = 7.4). Thus, samples were prepared in the concentration of KI at 0.0, 400, 800, 1,200, 2,400, 3,600, 4,800, 6,000, 7,200, 8,400, 9,600, 10,800, 12,000 × 10^−6 mol∙L^−1. […] Fluorescence wavelengths and intensity areas of samples were measured at following conditions: EX = 345 nm, EM = 355~600 nm."}},
  "data": [
    {"smiles": "Cl.Cl.NCCCCNCCCN1C(=O)c2cccc3cccc(c23)C1=O", "note": "[Compound 7f, 2-[3-(4-Aminobutylamino)propyl]1H-benz-[de]isoquinoline-1,3(2H)-dione dihydrochloride]", "values": [
      {"measurement": "IC50", "setting": "human leukemia K562", "result": "18.9 ± 1.97", "unit": "µM"},
      {"measurement": "IC50", "setting": "cancer of colon HCT116", "result": "5.45 ± 1.71", "unit": "µM"},
      {"measurement": "IC50", "setting": "[1]", "result": "19.7 ± 3.42", "unit": "µM"},
      {"measurement": "apoptotic ratio", "setting": "HepG2 cells", "result": 47.0, "unit": "%"},
      {"measurement": "Ksv with I^− ion", "setting": "herring sperm DNA; absence of DNA, 7f 20 × 10^−6 mol∙L^−1", "result": 38.178, "unit": "L/mol"},
      {"measurement": "Ksv with I^− ion", "setting": "herring sperm DNA; presence of DNA 22.84 × 10^−6 mol∙L^−1, 7f 20 × 10^−6 mol∙L^−1", "result": 31.575, "unit": "L/mol"}
    ]}
  ]
}
